Assay results taken from ChEMBL document CHEMBL3045102, “Antibacterial, antifungal and antioxidant activity of some new water-soluble -diketones” (2013).
Values after ≈ are worked out from the molar mass of the structure shown.

Tests used:
Format in all cases: functional
Nakaseomyces glabratus = test: Antifungal activity against Candida glabrata ATCC 36583 after 48 hr by turbidity based microplate metohd; settings: ATCC 36583, 48 h
Candida albicans = test: Antifungal activity against Candida albicans ATCC 10231 after 48 hr by turbidity based microplate metohd; settings: ATCC 10231, 48 h
Escherichia coli = test: Antibacterial activity against Escherichia coli ATCC 25922 after 24 hr by spectrophotometric method; settings: ATCC 25922, 24 h
Staphylococcus aureus = test: Antibacterial activity against Staphylococcus aureus ATCC 25923 after 24 hr by spectrophotometric method; settings: ATCC 25923, 24 h
Pseudomonas aeruginosa = test: Antibacterial activity against Pseudomonas aeruginosa ATCC 27853 after 24 hr by sepctrophotometric method; settings: ATCC 27853, 24 h
[1] = test system: Radical scavenging activity; test: Antioxidant activity assessed as decrease in DPPH free radical level after 20 min by DPPH assay method; set-up: concentration or dose not given beside the values
Bacillus subtilis = test: Antibacterial activity against Bacillus subtilis ATCC 6633 after 24 hr by spectrophotometric method; settings: ATCC 6633, 24 h

Structure (SMILES) | MIC (Nakaseomyces glabratus) [µg/mL] | MIC (Candida albicans) [µg/mL] | MIC (Escherichia coli) [µg/mL] | MIC (Staphylococcus aureus) [µg/mL] | MIC (Pseudomonas aeruginosa) [µg/mL] | inhibition [1] [%] | MIC (Bacillus subtilis) [µg/mL]
OC(Cn1cncn1)(Cn1cncn1)c1ccc(F)cc1F [FLUCONAZOLE] | 10 (≈ 32.7 µM) | 10 (≈ 32.7 µM) | – | – | – | – | –
O=C(CC(=O)c1cc(Cl)c(O[C@@H]2O[C@H](CO)[C@@H](O)[C@H](O)[C@H]2O)cc1O)c1cccs1 | 150 (≈ 327 µM) | 5000 (≈ 10900 µM) | 5000 (≈ 10900 µM) | 300 (≈ 654 µM) | 30 (≈ 65.4 µM) | 81.2 | 625 (≈ 1360 µM)
O=C(CC(=O)c1ccc(O[C@@H]2O[C@H](CO)[C@@H](O)[C@H](O)[C@H]2O)cc1O)c1ccccn1 | 5000 (≈ 11900 µM) | 2500 (≈ 5960 µM) | 70 (≈ 167 µM) | 150 (≈ 358 µM) | 19 (≈ 45.3 µM) | 79 | 300 (≈ 715 µM)
O=C(CC(=O)c1ccc(O[C@@H]2O[C@H](CO)[C@@H](O)[C@H](O)[C@H]2O)cc1O)c1cccs1 | 5000 (≈ 11800 µM) | 2500 (≈ 5890 µM) | 1250 (≈ 2950 µM) | 300 (≈ 707 µM) | 150 (≈ 353 µM) | 74.2 | 150 (≈ 353 µM)
O=C(CC(=O)c1cc(Cl)c(O[C@@H]2O[C@H](CO)[C@@H](O)[C@H](O)[C@H]2O)cc1O)c1ccccn1 | 2500 (≈ 5510 µM) | 150 (≈ 331 µM) | 19 (≈ 41.9 µM) | 150 (≈ 331 µM) | 19 (≈ 41.9 µM) | 85.5 | 1250 (≈ 2750 µM)
O=C(CC(=O)c1ccc(O[C@@H]2O[C@H](CO)[C@@H](O)[C@H](O)[C@H]2O)cc1O)c1cccnc1 | 5000 (≈ 11900 µM) | 10000 (≈ 23800 µM) | 300 (≈ 715 µM) | 150 (≈ 358 µM) | 1250 (≈ 2980 µM) | 74.2 | 625 (≈ 1490 µM)
O=C1O[C@H]([C@@H](O)CO)C(O)=C1O | – | – | – | – | – | 98 | –
O=C(CC(=O)c1cc(Cl)c(O[C@@H]2O[C@H](CO)[C@@H](O)[C@H](O)[C@H]2O)cc1O)c1cccnc1 | 10000 (≈ 22000 µM) | 10000 (≈ 22000 µM) | 5000 (≈ 11000 µM) | 5000 (≈ 11000 µM) | 5000 (≈ 11000 µM) | 79.5 | 300 (≈ 661 µM)
O=C(CC(=O)c1ccc(O[C@@H]2O[C@H](CO)[C@@H](O)[C@H](O)[C@H]2O)cc1O)c1ccco1 | 5000 (≈ 12200 µM) | 5000 (≈ 12200 µM) | 2500 (≈ 6120 µM) | 625 (≈ 1530 µM) | 5000 (≈ 12200 µM) | 84.3 | 150 (≈ 367 µM)
O=C(CC(=O)c1cc(Cl)c(O[C@@H]2O[C@H](CO)[C@@H](O)[C@H](O)[C@H]2O)cc1O)c1ccco1 | 5000 (≈ 11300 µM) | 2500 (≈ 5650 µM) | 70 (≈ 158 µM) | 150 (≈ 339 µM) | 19 (≈ 42.9 µM) | 77 | 300 (≈ 678 µM)
CC1(C)S[C@@H]2[C@H](NC(=O)[C@H](N)c3ccccc3)C(=O)N2[C@H]1C(=O)O [AMPICILLIN] | – | – | 10 (≈ 28.6 µM) | 19 (≈ 54.4 µM) | 5 (≈ 14.3 µM) | – | 5 (≈ 14.3 µM)
